Experiments:
Type in all cases: cell-based
[1] = molecular target: T1, vanilloid receptor 1 (VR1/TRPV1) (Rattus norvegicus, UniProt O35433); experiment: Functional FLIPR Ca2+ influx assay on vanilloid receptor 1, capsaicin stimulus (Pharmacological Method I)
T1 construct: The vertebral column is removed from decapitated rats; from tissue; host or cells: primary cells from rat dorsal root ganglia (DRG)

vanilloid receptor (VR1) = molecular target: T2, vanilloid receptor (VR1) (Homo sapiens, UniProt Q8NER1); experiment: Functional FLIPR Ca2+ influx assay in CHO-K1 cells transfected with the VR1 gene, capsaicin stimulus (Pharmacological Method II); conditions: read-out: inhibition (in percent), Human Capsaicin
T2 construct: expressed in transfected cells; host or cells: CHO-K1 cells (ECACC), stably transfected

[2] = molecular target: vanilloid receptor 1 (VR1/TRPV1-Receptor) (Homo sapiens, UniProt Q8NER1); experiment: VR1 functional assay following pH-stimulus; conditions: read-out: inhibition (in percent), Human following pH-stimulus
Sequence of vanilloid receptor 1 (VR1/TRPV1-Receptor) (Q8NER1 whole entry): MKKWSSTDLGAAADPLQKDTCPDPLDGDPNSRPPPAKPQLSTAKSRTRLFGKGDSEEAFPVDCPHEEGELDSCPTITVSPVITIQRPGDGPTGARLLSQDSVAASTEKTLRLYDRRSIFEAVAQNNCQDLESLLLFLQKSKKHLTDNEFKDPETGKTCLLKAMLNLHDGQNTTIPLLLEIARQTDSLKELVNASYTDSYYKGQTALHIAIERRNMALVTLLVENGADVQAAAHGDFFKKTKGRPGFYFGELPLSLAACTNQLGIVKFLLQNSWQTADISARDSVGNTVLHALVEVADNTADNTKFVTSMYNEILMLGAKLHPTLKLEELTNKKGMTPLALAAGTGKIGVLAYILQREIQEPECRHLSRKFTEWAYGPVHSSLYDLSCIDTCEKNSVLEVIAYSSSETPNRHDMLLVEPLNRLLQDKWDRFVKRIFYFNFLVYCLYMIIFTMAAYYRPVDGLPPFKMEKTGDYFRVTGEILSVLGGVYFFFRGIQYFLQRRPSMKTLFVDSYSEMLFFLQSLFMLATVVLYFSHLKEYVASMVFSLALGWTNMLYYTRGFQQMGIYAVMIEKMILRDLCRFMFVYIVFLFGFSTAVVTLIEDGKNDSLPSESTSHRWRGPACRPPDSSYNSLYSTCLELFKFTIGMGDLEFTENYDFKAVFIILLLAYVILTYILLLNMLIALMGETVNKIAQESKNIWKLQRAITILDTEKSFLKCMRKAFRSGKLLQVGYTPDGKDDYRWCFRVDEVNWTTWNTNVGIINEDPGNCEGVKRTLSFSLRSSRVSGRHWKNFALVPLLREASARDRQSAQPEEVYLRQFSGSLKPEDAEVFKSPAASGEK

T1 sequence (O35433 whole entry): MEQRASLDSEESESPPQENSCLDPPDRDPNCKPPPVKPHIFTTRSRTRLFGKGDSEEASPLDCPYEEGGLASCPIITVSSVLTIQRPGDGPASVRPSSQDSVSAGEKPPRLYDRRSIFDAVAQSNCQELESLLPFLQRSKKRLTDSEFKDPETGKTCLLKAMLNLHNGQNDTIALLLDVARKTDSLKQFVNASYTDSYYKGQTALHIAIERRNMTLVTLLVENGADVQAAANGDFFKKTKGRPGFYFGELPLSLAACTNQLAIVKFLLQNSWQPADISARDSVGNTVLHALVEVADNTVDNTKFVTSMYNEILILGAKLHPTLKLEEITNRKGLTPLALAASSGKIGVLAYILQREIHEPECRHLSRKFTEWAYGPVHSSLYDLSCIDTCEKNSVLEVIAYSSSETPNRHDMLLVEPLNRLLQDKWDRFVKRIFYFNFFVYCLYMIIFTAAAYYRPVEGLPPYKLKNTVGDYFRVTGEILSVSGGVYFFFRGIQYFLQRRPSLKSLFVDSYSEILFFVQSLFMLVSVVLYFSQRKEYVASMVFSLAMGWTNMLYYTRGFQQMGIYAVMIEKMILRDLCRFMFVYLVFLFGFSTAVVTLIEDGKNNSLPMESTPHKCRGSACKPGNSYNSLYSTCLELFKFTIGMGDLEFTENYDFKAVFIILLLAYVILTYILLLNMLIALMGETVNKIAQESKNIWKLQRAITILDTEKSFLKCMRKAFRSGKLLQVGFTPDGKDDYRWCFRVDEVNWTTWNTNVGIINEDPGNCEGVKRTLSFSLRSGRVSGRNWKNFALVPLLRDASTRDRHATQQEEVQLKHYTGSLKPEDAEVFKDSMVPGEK
T2 sequence (Q8NER1 whole entry): as the sequence (Q8NER1 whole entry) above

Row | Ki ([1]; capsaicin stimulus) [nM] | inhibition at 0.1 µM (vanilloid receptor (VR1); @ 0.1 μM) [%] | inhibition at 1 µM (vanilloid receptor (VR1)) [%] | inhibition at 5 µM (vanilloid receptor (VR1)) [%] | inhibition at 5 µM [2] [%] | inhibition at 10 µM [2] [%] | inhibition at 1 µM ([1]; @ 1 μM, capsaicin, read-out: inhibition (in percent), Rat Capsaicin) [%] | inhibition at 5 µM ([1]; @ 5 μM, capsaicin, read-out: inhibition (in percent), Rat Capsaicin) [%] | Compound
1 | 117 | 0 | 20 | 77 | 4 | 33 | – | – | CS(=O)(=O)Nc1ccc(C2(C(=O)NCc3ccc(C(F)(F)F)nc3SC3CCCCC3)CCCC2)cc1F [Example 14, N-((2-(Cyclohexylthio)-6-(trifluoromethyl)pyridin-3-yl)methyl)-1-(3-fluoro-4-(methylsulfonamido)phenyl)cyclopentanecarboxamide]
2 | – | – | 0 | 33 | 7 | 32 | 7 | 69 | CC1CCN(c2nc(C(F)(F)F)ccc2CNC(=O)C2(c3ccc(NS(C)(=O)=O)c(F)c3)CCCCC2)CC1 [Example 15, 1-(3-Fluoro-4-(methylsulfonamido)phenyl)-N-((2-(4-methylpiperidin-1-yl)-6-(trifluoromethyl)pyridin-3-yl)methyl)cyclohexanecarboxamide]
